Entries after “also recorded” stand apart in the source; their conditions may differ.

Consider 7 compounds from publication PMC8548483, “Bioactive compounds from an endophytic fungi Nigrospora aurantiaca” (Botanical Studies, 2021).

What all share (type): cell-based, murine
The subject of series [1] is NO production in LPS-activated microglial BV-2 cells. Kind of series: Inhibition of NO production in LPS-activated microglial BV-2 cells (Griess method). Particulars: for Inhibitory effect on NO production (in words): LPS-activated BV-2 cells; for IC50: Mus musculus, LPS (150 ng/mL)-stimulated BV-2 cells, 15 min pretreatment, 24 h, mean ± SD (n = 3), read-out: IC50 (inhibitory effect on NO production). The method, then:
(§1) The murine BV-2 microglial cell line cultured followed the procedure of our previous reports (Hsiao et al. [2020]). In summary, BV-2 cells were cultured with DMEM containing Fetal Bovine Serum (FBS), streptomycin/penicillin, Lglutamine and HEPES at 37 °C, humidified 5% CO2. Prior to the study, BV-2 cells were cultured in FBS media (5%), pretreated with carrier media or various concentrations of compounds for 15 min, and eventually collected after 24 h of stimulation with LPS (150 ng/mL).
The level of nitric oxide (NO) metabolites from the production of activated BV-2 cells was measured with reference to the Griess method (Wang et al. [2018]).
(In general: Griess reagent forms a coloured azo dye with nitrite.)

Another series deals with microglial BV-2 cells. The series is described as follows: Cell viability (MTT test) in BV-2 cells. Conditions: 10 µM. As for the experimental part:
as §1
(§2) As in our previous report, cellular viability was assessed using MTT test where BV-2 cells, along with other compounds were treated for 24 h (Hsiao et al. [2020]).
In general terms: Tetrazolium assays rely on reduction of a dye to a coloured formazan, in cell work by metabolically active cells.

A short description of series [2]: Cell viability (MTT test) in BV-2 cells. Particulars: mouse, BV-2 microglial cells, 24 h, MTT, mean ± SD (n = 3), read-out: Cell viabillity (%). The method, then: as §1, §2

In general, IC50 refers to the midpoint of a concentration-inhibition curve. In the case of `C/C=C/C=C(\CO)C(/C=C/C)CO` (stereo not shown) [Compound 1, nigaurdiol], in series [1], the “Inhibitory effect on NO production (in words)” value is on record as “weak inhibitory effects; also recorded: weak inhibitory activities” and the IC50 worked out at 32.2 ± 3.3 µM. Moreover, the “Cytotoxicity against microglial BV-2 cells (in words)” value (“Cytotoxicity” for short) with microglial BV-2 cells is given as “no cytotoxic activity”. Besides, the viability at 24 h, 10 µM in series [2] was found to be 103 ± 8.8%.

For the compound `Cc1cc(O)c2c(c1)O[C@@]1(C)OC[C@H](C)C1C2` (stereo partly shown) [Compound 2, xyloketal K], in series [1], the “Inhibitory effect on NO production (in words)” value is given as “weak inhibitory effects; also recorded: weak inhibitory activities” and the half-maximal inhibitory concentration (IC50) came to 30.1 ± 3 µM. For the same compound, the “Cytotoxicity” value with microglial BV-2 cells is listed as “no cytotoxic activity”. Besides, the viability at 24 h, 10 µM in series [2] was found to be 98.3 ± 7.6%.

On to `COC1=CC(=O)c2c(O)c3c(c(O)c2C1=O)C[C@](C)(O)[C@H](O)[C@H]3O` [Compound 3, bostrycin], for which, in series [1], the “Inhibitory effect on NO production (in words)” value is “potently inhibitory effects; also recorded: potential inhibitory activities” and the IC50 was found to be 2.3 ± 0.3 µM. Also, the “Cytotoxicity” value in the series on microglial BV-2 cells was “significant cytotoxicity”. The viability at 24 h, 10 µM in series [2] was 10.7 ± 0.8%.

For `COC1=CC(=O)c2c(O)c3c(c(O)c2C1=O)C[C@](C)(O)[C@H](O)C3` [Compound 4, deoxybostrycin], in series [1], the “Inhibitory effect on NO production (in words)” value was “potently inhibitory effects; also recorded: potential inhibitory activities” and the half-maximal inhibitory concentration (IC50) stood at 2.5 ± 0.5 µM. Moreover, the “Cytotoxicity” value in the series with microglial BV-2 cells is recorded as “significant cytotoxicity”. In addition, the viability at 24 h, 10 µM in series [2] came to 11.3 ± 1.3%.

On to `COc1cc(O)c2c(c1O)[C@@H](O)[C@@H]1C[C@](C)(O)[C@H](O)C[C@@H]1C2=O` [Compound 5, xylanthraquinone], for which, in series [1], the “Inhibitory effect on NO production (in words)” value is “weak inhibitory effects; also recorded: weak inhibitory activities” and the IC50 was found to be 32.1 ± 6.7 µM. In addition, the “Cytotoxicity” value with microglial BV-2 cells is reported as “no cytotoxic activity”. Also, in series [2], the viability at 24 h, 10 µM came out at 103 ± 6.9%.

Turning to `CC(C)[C@@H](C)/C=C/[C@@H](C)[C@H]1CC[C@H]2C3=CC=C4C[C@@H](O)CC[C@]4(C)[C@H]3CC[C@]12C` [Compound 6, ergosterol], in series [1], the “Inhibitory effect on NO production (in words)” value was “potently inhibitory effects; also recorded: potential inhibitory activities; also recorded: considerable inhibitory effect” and the half-maximal inhibitory concentration (IC50) is 7.2 ± 1.4 µM. Further, in the series on microglial BV-2 cells, the “Cytotoxicity” value was “no significant cytotoxic effect”. In series [2], the viability at 24 h, 10 µM came out at 90.8 ± 6.7%.

For the compound `COc1cc(/C=C/C(=O)CC(=O)/C=C/c2ccc(O)c(OC)c2)ccc1O` [Curcumin, curcumin, reference compound], in series [1], the 50% inhibitory concentration (IC50) is 6 ± 0.3 µM.
